Legend:
[1] = tested on: HIV RoJo (a clinical isolate); assay: Chronically infected PBMCs, supernatant reverse transcriptase activity; type: cell-based
Experimental: Reverse transcriptase activity was measured in cell-free supernatants. Tritiated thymidine triphosphate (NEN) (TTP) was resuspended in distilled H2O at 5 Ci/mL. Poly rA and oligo dT were prepared as a stock solution which was kept at −20° C. The RT reaction buffer was prepared fresh on a daily basis and consists of 125 μL 1.0 M EGTA, 125 μL dH2O, 110 μL 10% SDS, 50 μL 1.0 M Tris (pH 7.4), 50 μL, 1.0 M DTT, and 40 μL 1.0 M MgCl2. These three solutions were mixed together in a ratio of 2 parts TTP, 1 part poly rA:oligo dT, and 1 part reaction buffer. Ten microliters of this reaction mixture was placed in a round bottom microtiter plate and 15 μL of virus containing supernatant was added and mixed. The plate was incubated at 37° C. in a water bath with a solid support to prevent submersion of the plate and incubated for 60 minutes. Following reaction, the reaction volume was spotted onto pieces of DE81 paper, washed 5 times for 5 minutes each in a 5% sodium phosphate buffer, 2 times for 1 minute each in distilled water, 2 times for 1 minute each in 70% ethanol, and then dried. Opti-Fluor O was added to each sample and incorporated radioactivity was quantitated utilizing a Wallac 1450 Microbetaplus liquid scintillation counter.
In these studies PBMCs are infected with HIV RoJo (a clinical isolate) and a dynamic population of infected PBMCs established over a period of 2 to 3 weeks. This population of infected PBMCs was established and maintained by the addition of fresh PBMCs in a 1:1 ratio every 7 days, thus overcoming the lost of PBMCs to normal cell death processes. Thus a population of cells was established that consisted of uninfected cells, short lived infected cells and long lived infected cells. In experiments where AZT was added to prevent re-infection of the population, we typically saw a 50% reduction in infection following a 7 day treatment. This means that 50% of the virus production from the infected […] population was due re-infection. […] Thus there was a population of infected PBMCs present ([…] of the total) which survived for extended periods of time and thus met the definition of being chronically infected.

ACH-2 cells = assay: ACH-2 assay, compound toxicity by MTS dye reduction; type: cell-based; set-up: Y. CC / 9′. CC: unit not given here
Experimental: At assay termination the assay plates were stained with the soluble tetrazolium-based dye MTS (CellTiter® Reagent, Promega) to determined cell viability and quantify compound toxicity. […] At termination of the assay 20 μL of MTS reagent was added per well. The wells were incubated for 4 h at 37° C., 5% CO2. Adhesive plate scalers were used in place of the lids, the sealed plate was inverted several times to mix the soluble formazan product and the plate was read spectrophotometrically at 490 nm with a 650 nm reference wavelength on a Molecular Devices Vmax plate reader.
U1 and ACH-2 cells were obtained from the AIDS Research and Reference Reagent Program and maintained under standard culture conditions in RPMI 1640 supplemented with 10% fetal bovine serum (heat inactivated), supplemented with 2 mM […], 100U/ml penicillin and 100 μg/ml, streptomycin. U1 cells were derived from the histocytic leukemia cell line U937, and contain a single integrated copy (HIV IIIB) […] a cytokine and/or phorbol inducible provirus. ACH-2 cells are derived from the A3.01 T lymphoblastic cell line, and contain 2 copies of the HIV IIIB provirus, however only one is cytokine and/or phorbol inducible. Cultures were maintained in such a way as to ensure exponential growth of the populations. At the time of the assay, cells were collected by centrifugation and counted by hemacytometer. If cell viability by Trypan Blue dye exclusion was less than 70% the assay was terminated. The cells were adjusted to 5×10^4 cells/mL and 100 μL, placed in 96 well plates with 100 μL media containing a final concentration of […] TNFα and the test compound. Cultures were incubated for 3 days and supernatants harvested. Compound toxicity was determined by MTS dye reduction. Virus expression was measured by supernatant reverse transcriptasc activity.

## Potassium Iodiscorbate [Compound K]
[1]; Day 7, 1 μg/ml
  Percent Control by Supernatant Reverse Transcriptase activity: 94 Percent Control
[1]; Day 7, 5 μg/ml
  Percent Control by Supernatant Reverse Transcriptase activity: 87 Percent Control
[1]; Day 7, 10 μg/ml
  Percent Control by Supernatant Reverse Transcriptase activity: 92 Percent Control
[1]; Day 7, 25 μg/ml
  Percent Control by Supernatant Reverse Transcriptase activity: 84 Percent Control
[1]; Day 7, 50 μg/ml
  Percent Control by Supernatant Reverse Transcriptase activity: 70 Percent Control
[1]; Day 7, 100 μg/ml
  Percent Control by Supernatant Reverse Transcriptase activity: 34 Percent Control
[1]; Day 14, 1 μg/ml
  Percent Control by Supernatant Reverse Transcriptase activity: 94 Percent Control
[1]; Day 14, 5 μg/ml
  Percent Control by Supernatant Reverse Transcriptase activity: 57 Percent Control
[1]; Day 14, 10 μg/ml
  Percent Control by Supernatant Reverse Transcriptase activity: 66 Percent Control
[1]; Day 14, 25 μg/ml
  Percent Control by Supernatant Reverse Transcriptase activity: 65 Percent Control
[1]; Day 14, 50 μg/ml
  Percent Control by Supernatant Reverse Transcriptase activity: 56 Percent Control
[1]; Day 14, 100 μg/ml
  Percent Control by Supernatant Reverse Transcriptase activity: 75 Percent Control
[1]; da 21, 1 μg/ml
  Percent Control by Supernatant Reverse Transcriptase activity: 90 Percent Control
[1]; da 21, 5 μg/ml
  Percent Control by Supernatant Reverse Transcriptase activity: 77 Percent Control
[1]; da 21, 10 μg/ml
  Percent Control by Supernatant Reverse Transcriptase activity: 74 Percent Control
[1]; da 21, 25 μg/ml
  Percent Control by Supernatant Reverse Transcriptase activity: 63 Percent Control
[1]; da 21, 50 μg/ml
  Percent Control by Supernatant Reverse Transcriptase activity: 46 Percent Control
[1]; da 21, 100 μg/ml
  Percent Control by Supernatant Reverse Transcriptase activity: 50 Percent Control
[1]; day 7
  IC50 in chronically infected PBMCs: 68 µg/mL
ACH-2 cells; 0.00063 uM, exp 2
  TOXICITY VALUES (MTS) MEAN: 0.990 O. D.
  Y. CC: 78.2
ACH-2 cells; 0.002 uM, exp 2
  TOXICITY VALUES (MTS) MEAN: 1.004 O. D.
  Y. CC: 79.3
ACH-2 cells; 0.00625 uM, exp 2
  TOXICITY VALUES (MTS) MEAN: 1.000 O. D.
  Y. CC: 78.9
ACH-2 cells; 0.02 uM, exp 2
  TOXICITY VALUES (MTS) MEAN: 0.943 O. D.
  Y. CC: 74.4
ACH-2 cells; 0.0625 uM, exp 2
  TOXICITY VALUES (MTS) MEAN: 0.891 O. D.
  Y. CC: 70.3
ACH-2 cells; 0.2 uM, exp 2
  TOXICITY VALUES (MTS) MEAN: 0.830 O. D.
  Y. CC: 65.6
ACH-2 cells; 0.625 uM, exp 2
  TOXICITY VALUES (MTS) MEAN: 0.826 O. D.
  Y. CC: 65.2
ACH-2 cells; 2 uM, exp 2
  TOXICITY VALUES (MTS) MEAN: 0.694 O. D.
  Y. CC: 54.8
ACH-2 cells; 6.25 uM, exp 2
  TOXICITY VALUES (MTS) MEAN: 0.208 O. D.
  Y. CC: 16.4
ACH-2 cells; 20 uM, exp 2
  TOXICITY VALUES (MTS) MEAN: 0.040 O. D.
  Y. CC: 3.2
ACH-2 cells; 62.5 uM, exp 2
  TOXICITY VALUES (MTS) MEAN: 0.020 O. D.
  Y. CC: 1.6
ACH-2 cells; 200 uM, exp 2
  TOXICITY VALUES (MTS) MEAN: 0.028 O. D.
  Y. CC: 2.2

## Zinc Iodiscorbate [Compound Z]
[1]; 21 days
  IC50 in chronically infected PBMCs: approximately 30 μg/ml
[1]; Day 7, 1 μg/ml
  Percent Control by Supernatant Reverse Transcriptase activity: 256 Percent Control
[1]; Day 7, 5 μg/ml
  Percent Control by Supernatant Reverse Transcriptase activity: 303 Percent Control
[1]; Day 7, 10 μg/ml
  Percent Control by Supernatant Reverse Transcriptase activity: 230 Percent Control
[1]; Day 7, 25 μg/ml
  Percent Control by Supernatant Reverse Transcriptase activity: 217 Percent Control
[1]; Day 7, 50 μg/ml
  Percent Control by Supernatant Reverse Transcriptase activity: 229 Percent Control
[1]; Day 7, 100 μg/ml
  Percent Control by Supernatant Reverse Transcriptase activity: 167 Percent Control
[1]; Day 14, 1 μg/ml
  Percent Control by Supernatant Reverse Transcriptase activity: 63 Percent Control
[1]; Day 14, 5 μg/ml
  Percent Control by Supernatant Reverse Transcriptase activity: 87 Percent Control
[1]; Day 14, 10 μg/ml
  Percent Control by Supernatant Reverse Transcriptase activity: 69 Percent Control
[1]; Day 14, 25 μg/ml
  Percent Control by Supernatant Reverse Transcriptase activity: 74 Percent Control
[1]; Day 14, 50 μg/ml
  Percent Control by Supernatant Reverse Transcriptase activity: 67 Percent Control
[1]; Day 14, 100 μg/ml
  Percent Control by Supernatant Reverse Transcriptase activity: 49 Percent Control
[1]; da 21, 1 μg/ml
  Percent Control by Supernatant Reverse Transcriptase activity: 80 Percent Control
[1]; da 21, 5 μg/ml
  Percent Control by Supernatant Reverse Transcriptase activity: 70 Percent Control
[1]; da 21, 10 μg/ml
  Percent Control by Supernatant Reverse Transcriptase activity: 56 Percent Control
[1]; da 21, 25 μg/ml
  Percent Control by Supernatant Reverse Transcriptase activity: 60 Percent Control
[1]; da 21, 50 μg/ml
  Percent Control by Supernatant Reverse Transcriptase activity: 48 Percent Control
[1]; da 21, 100 μg/ml
  Percent Control by Supernatant Reverse Transcriptase activity: 22 Percent Control
ACH-2 cells; 0.00063 μg/ml, exp 2
  TOXICITY VALUES (MTS) MEAN: 0.975 O, p.
ACH-2 cells; 0.002 μg/ml, exp 2
  TOXICITY VALUES (MTS) MEAN: 0.929 O, p.
ACH-2 cells; 0.00626 μg/ml, exp 2
  TOXICITY VALUES (MTS) MEAN: 0.961 O, p.
ACH-2 cells; 0.02 μg/ml, exp 2
  9′. CC: 101.1
  TOXICITY VALUES (MTS) MEAN: 1.006 O, p.
ACH-2 cells; 0.0625 μg/ml, exp 2
  TOXICITY VALUES (MTS) MEAN: 0.894 O, p.
ACH-2 cells; 0.2 μg/ml, exp 2
  9′. CC: 81.0
  TOXICITY VALUES (MTS) MEAN: 0.807 O, p.
ACH-2 cells; 0.625 μg/ml, exp 2
  9′. CC: 72.2
  TOXICITY VALUES (MTS) MEAN: 0.718 O, p.
ACH-2 cells; 2 μg/ml, exp 2
  9′. CC: 70.0
  TOXICITY VALUES (MTS) MEAN: 0.696 O, p.
ACH-2 cells; 6.25 μg/ml, exp 2
  9′. CC: 40.1
  TOXICITY VALUES (MTS) MEAN: 0.399 O, p.
ACH-2 cells; 20 μg/ml, exp 2
  9′. CC: 0.0
  TOXICITY VALUES (MTS) MEAN: 0.000 O, p.
ACH-2 cells; 62.5 μg/ml, exp 2
  9′. CC: 0.0
  TOXICITY VALUES (MTS) MEAN: 0.000 O, p.
ACH-2 cells; 200 μg/ml, exp 2
  9′. CC: 0.0
  TOXICITY VALUES (MTS) MEAN: 0.000 O, p.
ACH-2 cells; 0.00063 μG/Ml, exp 1
  TOXICITY VALUES (MTS) MEAN: 1.061 O. D.
ACH-2 cells; 0.002 μG/Ml [c9], exp 1
  TOXICITY VALUES (MTS) MEAN: 1.049 O. D.
ACH-2 cells; 0.002 μG/Ml [c11], exp 1
  TOXICITY VALUES (MTS) MEAN: 1.081 O. D.
ACH-2 cells; 0.00625 μG/Ml, exp 1
  TOXICITY VALUES (MTS) MEAN: 1.019 O. D.
ACH-2 cells; 0.0625 μG/Ml, exp 1
  TOXICITY VALUES (MTS) MEAN: 0.984 O. D.
ACH-2 cells; 0.2 μG/Ml, exp 1
  TOXICITY VALUES (MTS) MEAN: 1.002 O. D.
ACH-2 cells; 0.625 μG/Ml, exp 1
  TOXICITY VALUES (MTS) MEAN: 0.939 O. D.
ACH-2 cells; 2 μG/Ml, exp 1
  % CC: 88.1%
  TOXICITY VALUES (MTS) MEAN: 0.885 O. D.
ACH-2 cells; 6.25 μG/Ml, exp 1
  % CC: 81.8%
  TOXICITY VALUES (MTS) MEAN: 0.822 O. D.
ACH-2 cells; 20 μG/Ml, exp 1
  % CC: 85.1%
  TOXICITY VALUES (MTS) MEAN: 0.856 O. D.
ACH-2 cells; 62.5 μG/Ml, exp 1
  % CC: 6.3%
  TOXICITY VALUES (MTS) MEAN: 0.063 O. D.
ACH-2 cells; 200 μG/Ml, exp 1
  % CC: 1.3%
  TOXICITY VALUES (MTS) MEAN: 0.013 O. D.
ACH-2 cells; ACH2, exp 1, Table 2
  TC50: ITC50 (μG/Ml) = 38.94
ACH-2 cells; ACH-2, experiment 1, Table 1
  TC50: 39
ACH-2 cells; ACH-2, experiment 2, Table 1
  TC50: 4.8
ACH-2 cells; exp 2
  ACH2 TC50: 4.8 µg/mL
ACH-2 cells; exp 2, listed as COMPOUND Z
  ACH2 TC50: TC50 (vg/mol) = 4.84 μg/ml
